This note sets out measurements from paper PMC5005245, “Chemical and pharmacological evaluations on the extract of Scutellaria baicalensis Georgi (Huang-Qin) prepared by various extraction methods” (SpringerPlus, 2016).

A short description of experiment [1]: DPPH free radicals scavenging assay. The settings on record: concentration of sample which scavenges 50 % of free radicals; 30 min; mean ± SEM (n = 3). The method, then: The free radicals scavenging capacities (SC) were measured and compared using the DPPH assay (Chan et al. [2010]). Briefly, 5 µl of individual extract (0.625–10 mg/ml) was mixed with 195 μl of DPPH solution (24 mg/l) in a 96-well plate. The reaction was allowed to proceed in the dark for 30 min before the absorbance of the resultant solution was measured at 515 nm using a Micro-plate Absorbance Reader (Bio-Rad, CA, USA). Ascorbic acid (Sigma-Aldrich Chemicals Co., MO, USA) in distilled water served as the positive control. SC50 was estimated as the concentration of sample which scavenges 50 % of free radicals.

A further experiment in a line: FRAP assay. To be noted: positive control, 1 mM was used; mean ± SEM (n = 3). The method, then: The FRAP assay was performed in a 96-well plate as described (Firuzi et al. [2005]). Briefly, 5 µl of each sample was mixed with 150 µl of freshly prepared FRAP reagent (250 mM acetate buffer, pH 3.6; 8.3 mM 2,4,6-tripyridyl-s-triazine dissolved in 40 mM HCl and 16.7 mM FeCl3·6H2O solution). After incubation at 37 °C for 30 min, the absorbance of the solution was measured at 593 nm. Different concentrations of Fe^2+ standard solution were used for the construction of the standard curve, and ascorbic acid was used as the positive control.

`O=C1O[C@H]([C@@H](O)CO)C(O)=C1O` [Ascorbic acid]: in experiment [1], the “DPPH assay (SC50)” value came to 0.107 ± 0.004 mg/mL. Besides, the FRAP assay in the experiment “FRAP assay” was determined as 2278 ± 15 μmol Fe^2+/mg extract.
